Assay results: patent publication US20240255515A1, “G4-SPECIFIC PEPTIDES AND METHODS OF IDENTIFYING THE SAME” (CITY UNIVERSITY OF HONG KONG, priority 2023, published 2024)
Read-outs that look alike come from different tables or passages of the source.

What was measured:
hTERC rG4 [1] = test: Ligand-enhanced fluorescence assay; design: species or system human; conditions: 100 nM hTERC rG4
Procedure: HTERC rG4 (100 nM) in Tris-HCl buffer (25 mM Tris-HCl, pH 7.5, 150 mM KCl, and 1 mM MgCl2) was heated at 95° C. for 3 minutes and cooled down at 25° C. for 10 minutes. 10 μL of the peptide and rG4 mixture were incubated for 30 minutes at room temperature. Fluorescence spectroscopy was performed using a microplate reader in 384 well plate. The samples were excited at 394 nm and the emission spectra were detected at 610 nm. The plot was carried out by software.

[2] = test system: hTERC rG4 WT construct in HeLa cells; test: Dual-luciferase reporter gene assay, hTERC rG4 WT construct; assay type: cell-based, human; conditions: peptide 0, 100, 200 nM, 48 hours
Procedure: (§1) Wild-type or mutant hTERC rG4 construct was inserted into the HSV-TK promoter at the SacII restriction enzyme site of firefly/renilla dual luciferase reporter vector, psiCHECK-2. Then, wild-type or mutant reporter plasmid was transfected into Hela cells together with peptides (0, 100, 200 nM) using nucleofector. Each well of the 96-well black-wall optical plate was transfected with 30 ng plasmids. The luciferase reporter gene assays were performed after 48 hours of incubation using the dual-luciferase reporter assay kit. The microplate reader was used to measure luciferase activities with renilla luciferase serving as an internal control. The ratio of firefly to renilla was calculated to analyze the data. Three replicates were performed for each measurement, and the error bar was plotted based on the standard deviation. The P-value was calculated using two-tailed unpaired Student's t-tests to evaluate the significance of the samples.
After confirming that the rG4-targeting peptides can interact with rG4 structures in live cells, their effect on modulating rG4-mediated gene expression was examined in the example. Dual luciferase reporter gene assay was conducted in HeLa cells, in which hTERC rG4 WT motif (SEQ ID NO: 12) or hTERC rG4 MUT motif (SEQ ID NO: 13) was inserted in the 5′ untranslated region (5′ UTR) of the renilla luciferase gene region separately, and the firefly luciferase gene was used as a normalized gene (FIG. 1).

[3] = test system: 5' FAM, 3' TAMRA labelled hTERC rG4; test: FRET melting assay; assay type: binding, human; conditions: increasing peptide concentration, 0-2 μM; 0.2 μM rG4
Procedure: FRET-melting assay was performed with 5′ FAM, 3′ TAMRA labelled hTERC rG4. The oligonucleotides were prepared at 0.2 μM, and the peptides were prepared at 0, 0.2, 0.4, 1 or 2 μM final concentration. The samples were excited at 492 nm and the emission spectra were detected at 516 nm in a buffer containing 10 mM lithium cacodylate and 1 mM KCl. The rG4 was heated at 95° C. for 5 minutes and cooled down in room temperature to refold for 10 minutes before adding the peptides. The signal was monitored by real-time PCR detection system with a procedure of 30 minutes at 25° C., then an increase of 0.5° C. every minute until 95° C. Each experimental condition was tested in three duplicates in a volume of 25 μL for each sample. The data were blanked, averaged and smoothed over 2° C. The plot was carried out by software.

[4] = test system: rG4s, dG4s (c-MYC, c-kit1, HRAS-1, hTelo) and non-G4 targets (scramble G-rich sequence, DNA hairpin, RNA hairpin); test: MST binding selectivity test with different rG4s, dG4s and non-G4 targets; conditions: data not shown
Procedure: (§2) The RNA was subjected to heat treatment at 75° C. for 5 minutes followed by cooling down to room temperature for 10 minutes for renaturation purposes. For binding affinity and selectivity test, reaction mixtures containing 50 nM FAM-labelled RNA, 150 mM KCl, 1 mM MgCl2, 25 mM Tris-HCl (pH 7.5) and varying concentrations of peptide were prepared and incubated at 37° C. for 30 minutes. The samples were then loaded into MST capillary tubes, and the measurements were taken at 25° C. using blue light mode and the binding affinity mode. The data obtained from these measurements were analyzed using MST nano temper analysis (nta) analysis software. The curve fitting and dissociation constant (Kd) determination were carried out by software using the one site-specific binding model.

hTERC rG4 [5] = test: Microscale thermophoresis (MST) binding assay; design: species or system human; conditions: 50 nM FAM-labelled RNA, 150 mM KCl
Procedure: as §2

[6] = test system: hTERC rG4 MUT construct in HeLa cells; test: Dual-luciferase reporter gene assay, hTERC rG4 MUT construct; assay type: cell-based, human; conditions: peptide 0, 100, 200 nM, 48 hours
Procedure: as §1
After confirming that the rG4-targeting peptides can interact with rG4 structures in live cells, their effect on modulating rG4-mediated gene expression was examined in the example. […]

[7] = test system: hTERC rG4 MUT in HeLa cells; test: Cell imaging, co-transfection with hTERC rG4 MUT; assay type: cell-based, human; conditions: 5 hours post-transfection, data not shown
Procedure: (§3) HeLa cells were seeded on a 3.5 cm confocal dish 1 day before transfection. FAM-labelled hTERC rG4 was heated to 75° C. for 5 minutes, annealed at 25° C., and then co-transfected with TAMRA-labelled peptide using LIPOFECTAMINE® 2000. Five hours post-transfection, the cells were stained with 50 nM deep red-fluorescent dye (labeling and tracking acidic organelles in live cells) for 30 minutes and 5 μg/mL Hoechst dye (staining nucleic acid) for 15 minutes. The images were monitored using a laser confocal scanning microscope. Fluorescence statistics of cells were analyzed using software.

hTERC rG4 wild-type (WT) = test: Filter binding assay, hTERC rG4 wild-type; design: species or system human; conditions: data not shown
Procedure: (§4) In the binding affinity and selectivity tests, reaction mixtures containing 5 nM biotin-labeled RNA, 25 mM Tris-HCl (pH 7.5), 150 mM KCl, 1 mM MgCl2 and varying concentrations of peptides were prepared in 50 μL and incubated at 37° C. for 30 minutes before loaded onto an apparatus containing a nitrocellulose membrane (top) and nylon membrane (bottom). The nylon membrane was rinsed with 0.5× Tris-borate-EDTA (TBE) buffer for 5 minutes, and the nitrocellulose membrane was rinsed with 0.5 M KOH for 15 minutes at 4° C. and then rinsed with 0.5×TBE buffer for one time prior to use. The membranes were washed with binding buffer for three times before and after applying the sample to the apparatus. The crosslinking step was carried out by exposing the membranes to UV irradiation at 254 nm, 120,000 microjoules/cm^2 for 5 minutes. The results were detected using a chemiluminescent nucleic acid detection module kit, and the scanned by an imaging system.

hTERC rG4 mutant (MUT) = test: Filter binding assay, hTERC rG4 mutant; design: species or system human; conditions: data not shown
Procedure: as §4

[8] = test system: hTERC rG4 WT in HeLa cells; test: Cell imaging, co-transfection with hTERC rG4 WT; assay type: cell-based, human; conditions: 5 hours post-transfection, data not shown
Procedure: as §3

For “RHAU53: positive control peptide reported to interact with rG4s; sequence SMHPGHLKGREIGMWYAKKQGQKNKEAERQERAVVHMDERREEQIVQLLNSVQA K (SEQ ID NO: 4) (SMHPGHLKGREIGMWYAKKQGQKNKEAERQERAVVHMDERREEQIVQLLNSVQAK)”, the “fluorescence signal / conformational change of G4 upon peptide binding” value (hTERC rG4 [1]) was “exhibited a similar result” and the “normalized luciferase activity, WT construct” value [2] was “effects of both tandem and cyclic pep11 were comparable to that of RHAU53”.
In the case of “de novo G4-binding peptide with amino acid sequence TKRKHPHRRKYR (SEQ ID NO: 1) [pep11]”, the “melting temperature of hTERC rG4” value [3] is reported as “Higher melting temperatures”, the “binding selectivity among rG4s, dG4s and non-G4s” value [4] is reported as “only rG4s exhibited observable binding” and the Kd (hTERC rG4 [5]; read-out: Kd, binding to hTERC rG4) is reported as 1370 ± 220 nM.
In the case of “pep71: negative control peptide with amino acid sequence AHPLTKPPKYHH (SEQ ID NO: 5) [reference compound]”, the “normalized luciferase activity, WT construct” value [2] is reported as “did not impact” and the “normalized luciferase activity, MUT construct” value [6] is reported as “did not impact”.
With “two pep11 domains linked by (GTGSGA)3: TKRKHPHRRKYRGTGSGAGTGSGAGTGSGATKRKHPHRRKYR (SEQ ID NO: 3) [tandem pep11]” the “foci in cells transfected with hTERC rG4 MUT” value [7] was “few foci were observed”, the “melting temperature of hTERC rG4” value [3] was “Higher melting temperatures” and the “binding to hTERC rG4 WT” value (hTERC rG4 wild-type (WT)) was “bound to hTERC rG4 WT”. For the same substance, the “binding to hTERC rG4 MUT” value (hTERC rG4 mutant (MUT)) was “not MUT”, the “normalized luciferase activity, WT construct” value [2] was “the inhibition extended with increasing concentration” and the “colocalization of TAMRA-labelled peptide with hTERC rG4 WT foci in live cells” value [8] was “clear colocalization of TAMRA signals with the fluorescent foci”. For the same substance, the “binding selectivity among rG4s, dG4s and non-G4s” value [4] was “bound to other rG4s but not to non-G4s and weakly to dG4s” and the Kd (hTERC rG4 [5]; read-out: Kd, binding affinity to hTERC rG4) was 449 ± 62 nM.
